The values below come from publication PMC11637875, “Discovery of novel PARP1/NRP1 dual-targeting inhibitors with strong antitumor potency” (Frontiers in Pharmacology, 2024).

One experiment deals with GSK3β (Homo sapiens, UniProt P49841). The experiment in a line: Selectivity profile (123 kinase panel). Type of experiment: biochemical.
Another experiment concerns the target MARK3 (Homo sapiens, UniProt P27448). The experiment in a line: Selectivity profile (123 kinase panel). Type of experiment: biochemical.

GSK3β, sequence (P49841 whole entry): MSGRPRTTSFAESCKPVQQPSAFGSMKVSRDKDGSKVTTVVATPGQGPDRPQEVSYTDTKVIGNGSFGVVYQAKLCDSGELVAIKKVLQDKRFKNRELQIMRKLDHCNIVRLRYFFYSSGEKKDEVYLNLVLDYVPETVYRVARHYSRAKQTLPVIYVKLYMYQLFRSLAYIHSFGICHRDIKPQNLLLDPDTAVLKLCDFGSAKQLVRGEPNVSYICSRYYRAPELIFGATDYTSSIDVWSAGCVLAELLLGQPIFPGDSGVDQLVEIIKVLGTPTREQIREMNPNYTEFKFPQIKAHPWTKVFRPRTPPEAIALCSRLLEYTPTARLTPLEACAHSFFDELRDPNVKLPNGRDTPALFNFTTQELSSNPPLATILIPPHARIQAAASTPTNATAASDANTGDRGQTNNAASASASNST
MARK3, sequence (P27448 whole entry): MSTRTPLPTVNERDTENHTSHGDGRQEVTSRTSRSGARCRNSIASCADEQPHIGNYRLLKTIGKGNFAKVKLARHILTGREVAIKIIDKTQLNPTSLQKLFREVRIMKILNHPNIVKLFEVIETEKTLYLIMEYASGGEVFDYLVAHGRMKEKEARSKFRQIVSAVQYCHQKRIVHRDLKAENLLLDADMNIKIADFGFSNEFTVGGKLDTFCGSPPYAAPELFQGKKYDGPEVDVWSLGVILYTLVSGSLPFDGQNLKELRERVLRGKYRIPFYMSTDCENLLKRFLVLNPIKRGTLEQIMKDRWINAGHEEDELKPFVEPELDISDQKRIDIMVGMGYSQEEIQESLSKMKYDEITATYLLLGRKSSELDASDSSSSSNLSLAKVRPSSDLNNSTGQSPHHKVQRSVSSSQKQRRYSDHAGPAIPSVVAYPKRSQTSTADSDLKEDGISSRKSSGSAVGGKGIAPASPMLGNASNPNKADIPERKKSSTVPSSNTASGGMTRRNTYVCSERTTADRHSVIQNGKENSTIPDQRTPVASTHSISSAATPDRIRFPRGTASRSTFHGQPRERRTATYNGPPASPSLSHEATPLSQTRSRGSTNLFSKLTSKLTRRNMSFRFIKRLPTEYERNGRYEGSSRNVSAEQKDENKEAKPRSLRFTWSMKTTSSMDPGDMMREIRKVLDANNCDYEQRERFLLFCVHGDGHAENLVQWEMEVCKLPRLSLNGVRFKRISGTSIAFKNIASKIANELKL

By IC50 is commonly meant the concentration at which inhibition is half-maximal. A high value points to a need for much substance. Take `NC(N)=NCCC[C@H](NCN1CCN(C(=O)c2cc(Cc3n[nH]c(=O)c4ccccc34)ccc2F)CC1)C(=O)O` [PPNR-4]: the concentration for half-maximal inhibition (IC50) against GSK3β and against MARK3 was greater than 10 µM each time.
